Like-named read-outs stand apart in the source and are kept apart here.
Experiments:
CDK19/Cyclin C = CDK19/Cyclin C (Homo sapiens, UniProt Q9BWU1); test: NanoBRET live-cell target engagement, NanoLuc-CDK19/Cyclin C in HEK-293; conditions: CDK19/C
CDK15/Cyclin Y = CDK15/Cyclin Y (Homo sapiens, UniProt Q96Q40); test: NanoBRET live-cell target engagement, NanoLuc-CDK15/Cyclin Y in HEK-293; type: binding
CDK4/Cyclin D1 = CDK4/Cyclin D1 (Homo sapiens, UniProt P11802); test: NanoBRET live-cell target engagement, NanoLuc-CDK4/Cyclin D1 in HEK-293; type: binding; conditions: CDK4/D1; for IC50: read-out: IC50
CDK9/Cyclin K = CDK9/Cyclin K (Homo sapiens, UniProt P50750); test: NanoBRET live-cell target engagement, NanoLuc-CDK9/Cyclin K in HEK-293; type: binding; conditions: CDK9/K
CDK1/Cyclin E1 = CDK1/Cyclin E1 (Homo sapiens, UniProt P06493); test: NanoBRET live-cell target engagement, CDK1-NanoLuc/Cyclin E1 in HEK-293; type: binding
CDK11A/Cyclin L2 = biological target: T1, CDK11A/Cyclin L2 (Homo sapiens, UniProt Q9UQ88); test: NanoBRET live-cell target engagement, CDK11A-NanoLuc/Cyclin L2 in HEK-293; type: binding; conditions: CDK11a/L2
T1 sequence (Q9UQ88 1-783): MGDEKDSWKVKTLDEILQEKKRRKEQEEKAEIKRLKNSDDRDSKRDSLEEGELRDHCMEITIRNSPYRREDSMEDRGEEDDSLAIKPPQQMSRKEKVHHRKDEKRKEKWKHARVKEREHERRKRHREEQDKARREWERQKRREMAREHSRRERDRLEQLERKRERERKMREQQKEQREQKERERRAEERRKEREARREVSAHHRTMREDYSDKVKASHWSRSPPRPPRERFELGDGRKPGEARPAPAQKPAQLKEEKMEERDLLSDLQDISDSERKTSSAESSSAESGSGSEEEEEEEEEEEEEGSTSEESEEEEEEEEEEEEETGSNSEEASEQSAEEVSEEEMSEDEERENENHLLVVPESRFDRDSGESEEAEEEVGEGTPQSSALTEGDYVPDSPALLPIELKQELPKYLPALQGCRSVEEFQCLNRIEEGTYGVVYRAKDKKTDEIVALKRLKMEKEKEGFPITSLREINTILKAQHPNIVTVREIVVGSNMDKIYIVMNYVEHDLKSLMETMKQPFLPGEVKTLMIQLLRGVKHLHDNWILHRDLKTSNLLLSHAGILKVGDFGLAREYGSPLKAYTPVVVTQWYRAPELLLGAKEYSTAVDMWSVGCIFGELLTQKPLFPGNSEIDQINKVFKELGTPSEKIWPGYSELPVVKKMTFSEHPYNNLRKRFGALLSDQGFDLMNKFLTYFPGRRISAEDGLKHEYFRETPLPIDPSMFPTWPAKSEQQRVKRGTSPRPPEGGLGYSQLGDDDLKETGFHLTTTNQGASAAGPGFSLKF

CDK5/CDK5R1 = CDK5/CDK5R1 (Homo sapiens, UniProt Q00535); test: NanoBRET live-cell target engagement, CDK5-NanoLuc/CDK5R1 in HEK-293; type: binding
CDK14/Cyclin Y = CDK14/Cyclin Y (Homo sapiens, UniProt O94921); test: NanoBRET live-cell target engagement, CDK14-NanoLuc/Cyclin Y in HEK-293; type: binding; conditions: CDK14/Y
CDK12/Cyclin K = CDK12/Cyclin K (Homo sapiens, UniProt Q9NYV4); test: NanoBRET live-cell target engagement, CDK12-NanoLuc/Cyclin K in HEK-293; type: binding; conditions: CDK12/K
CDK20/Cyclin H = CDK20/Cyclin H (Homo sapiens, UniProt Q8IZL9); test: NanoBRET live-cell target engagement, NanoLuc-CDK20/Cyclin H in HEK-293; type: binding; conditions: CDK20/H
CDK10/Cyclin L2 = CDK10/Cyclin L2 (Homo sapiens, UniProt Q15131); test: NanoBRET live-cell target engagement, CDK10-NanoLuc/Cyclin L2 in HEK-293; conditions: CDK10/L2
CDK13/Cyclin K = CDK13/Cyclin K (Homo sapiens, UniProt Q14004); test: NanoBRET live-cell target engagement, CDK13-NanoLuc/Cyclin K in HEK-293; type: binding; conditions: CDK13/K
CDK11B/Cyclin L2 = CDK11B/Cyclin L2 (Homo sapiens, UniProt P21127); test: NanoBRET live-cell target engagement, CDK11B-NanoLuc/Cyclin L2 in HEK-293; type: binding; conditions: CDK11b/L2; for IC50: read-out: IC50
CDK6/Cyclin D1 = CDK6/Cyclin D1 (Homo sapiens, UniProt Q00534); test: NanoBRET live-cell target engagement, NanoLuc-CDK6/Cyclin D1 in HEK-293; type: binding; conditions: CDK6/D1; for IC50: read-out: IC50
CDK18/Cyclin Y = CDK18/Cyclin Y (Homo sapiens, UniProt Q07002); test: NanoBRET live-cell target engagement, CDK18-NanoLuc/Cyclin Y in HEK-293; type: binding; conditions: CDK18/Y; for IC50: read-out: IC50
CDK8/Cyclin C = CDK8/Cyclin C (Homo sapiens, UniProt P49336); test: NanoBRET live-cell target engagement, NanoLuc-CDK8/Cyclin C in HEK-293; type: binding; conditions: CDK8/C
CDK16/Cyclin Y = CDK16/Cyclin Y (Homo sapiens, UniProt Q00536); test: NanoBRET live-cell target engagement, CDK16-NanoLuc/Cyclin Y in HEK-293; type: binding; conditions: CDK16/Y; for IC50: read-out: IC50
CDK17/Cyclin Y = CDK17/Cyclin Y (Homo sapiens, UniProt Q00537); test: NanoBRET live-cell target engagement, CDK17-NanoLuc/Cyclin Y in HEK-293; type: binding; conditions: CDK17/Y; for IC50: read-out: IC50
CDK7 = CDK7 (Homo sapiens, UniProt P50613); test: NanoBRET live-cell target engagement, NanoLuc-CDK7 in HEK-293; type: binding; conditions: CDK7; for IC50: read-out: IC50
CDK7, sequence (P50613 whole entry): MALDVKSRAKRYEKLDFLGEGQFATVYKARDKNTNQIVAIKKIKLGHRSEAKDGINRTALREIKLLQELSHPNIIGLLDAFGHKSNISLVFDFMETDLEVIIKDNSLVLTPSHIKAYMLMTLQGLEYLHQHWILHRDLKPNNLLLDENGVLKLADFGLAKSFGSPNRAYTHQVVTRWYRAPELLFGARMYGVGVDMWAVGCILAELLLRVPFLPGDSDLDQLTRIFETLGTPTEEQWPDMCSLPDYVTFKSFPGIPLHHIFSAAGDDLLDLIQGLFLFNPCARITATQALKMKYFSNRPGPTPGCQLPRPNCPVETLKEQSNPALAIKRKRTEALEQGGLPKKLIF

CDK16/Cyclin Y, sequence (Q00536 whole entry): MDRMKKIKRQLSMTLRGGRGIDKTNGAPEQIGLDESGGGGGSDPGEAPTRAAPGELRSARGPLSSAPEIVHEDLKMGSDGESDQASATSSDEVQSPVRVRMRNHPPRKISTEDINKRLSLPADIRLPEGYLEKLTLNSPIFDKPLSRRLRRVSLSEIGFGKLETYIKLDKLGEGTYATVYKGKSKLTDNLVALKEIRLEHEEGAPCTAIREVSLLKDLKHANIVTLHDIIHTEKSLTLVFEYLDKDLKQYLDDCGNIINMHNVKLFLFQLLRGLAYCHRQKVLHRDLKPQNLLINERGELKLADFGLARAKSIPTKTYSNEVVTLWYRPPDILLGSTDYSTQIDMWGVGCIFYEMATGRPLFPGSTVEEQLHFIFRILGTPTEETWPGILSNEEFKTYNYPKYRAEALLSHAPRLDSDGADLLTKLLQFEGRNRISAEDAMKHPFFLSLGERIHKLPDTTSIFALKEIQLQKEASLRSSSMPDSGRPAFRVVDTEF
CDK16/Cyclin Y, sequence (Q8ND76 whole entry partner): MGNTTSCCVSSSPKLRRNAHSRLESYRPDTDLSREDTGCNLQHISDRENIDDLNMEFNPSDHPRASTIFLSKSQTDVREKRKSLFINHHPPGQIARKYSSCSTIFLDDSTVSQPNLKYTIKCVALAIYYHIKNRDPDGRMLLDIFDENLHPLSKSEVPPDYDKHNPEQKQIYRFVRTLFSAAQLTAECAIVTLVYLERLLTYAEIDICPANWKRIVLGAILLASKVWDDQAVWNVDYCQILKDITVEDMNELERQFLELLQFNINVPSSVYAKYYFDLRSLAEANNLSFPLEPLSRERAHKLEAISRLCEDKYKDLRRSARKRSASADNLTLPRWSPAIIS
CDK19/Cyclin C, sequence (Q9BWU1 whole entry): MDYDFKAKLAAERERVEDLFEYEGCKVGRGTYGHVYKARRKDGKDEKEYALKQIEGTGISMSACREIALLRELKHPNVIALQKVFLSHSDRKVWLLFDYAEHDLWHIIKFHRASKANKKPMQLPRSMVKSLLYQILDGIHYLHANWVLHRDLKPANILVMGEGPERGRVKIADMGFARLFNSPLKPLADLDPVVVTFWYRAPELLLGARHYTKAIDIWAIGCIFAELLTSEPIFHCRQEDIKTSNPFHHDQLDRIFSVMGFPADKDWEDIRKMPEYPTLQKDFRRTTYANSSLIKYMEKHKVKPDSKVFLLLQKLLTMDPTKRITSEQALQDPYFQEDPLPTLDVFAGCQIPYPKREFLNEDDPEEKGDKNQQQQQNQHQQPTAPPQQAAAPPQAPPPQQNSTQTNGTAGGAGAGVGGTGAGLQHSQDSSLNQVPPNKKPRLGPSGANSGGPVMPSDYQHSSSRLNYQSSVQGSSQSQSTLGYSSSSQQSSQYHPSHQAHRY
CDK19/Cyclin C, sequence (P24863 whole entry partner): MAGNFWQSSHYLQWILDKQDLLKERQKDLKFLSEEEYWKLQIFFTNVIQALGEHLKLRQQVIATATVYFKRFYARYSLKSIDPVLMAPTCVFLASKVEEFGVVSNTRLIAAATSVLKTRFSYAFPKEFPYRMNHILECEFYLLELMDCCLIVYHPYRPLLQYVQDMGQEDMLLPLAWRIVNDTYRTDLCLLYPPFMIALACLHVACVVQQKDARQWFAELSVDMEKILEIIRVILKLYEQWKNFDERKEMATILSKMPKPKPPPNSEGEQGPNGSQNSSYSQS
CDK6/Cyclin D1, sequence (Q00534 whole entry): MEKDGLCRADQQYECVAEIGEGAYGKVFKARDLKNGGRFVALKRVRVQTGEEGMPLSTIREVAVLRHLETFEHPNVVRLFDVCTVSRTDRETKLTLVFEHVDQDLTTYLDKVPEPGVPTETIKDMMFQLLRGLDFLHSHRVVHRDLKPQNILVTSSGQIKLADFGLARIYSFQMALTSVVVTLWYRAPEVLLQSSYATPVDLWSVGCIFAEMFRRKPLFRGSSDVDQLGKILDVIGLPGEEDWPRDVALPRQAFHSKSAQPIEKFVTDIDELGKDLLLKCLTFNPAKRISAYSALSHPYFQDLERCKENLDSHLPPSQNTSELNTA
CDK6/Cyclin D1, sequence (P24385 whole entry partner): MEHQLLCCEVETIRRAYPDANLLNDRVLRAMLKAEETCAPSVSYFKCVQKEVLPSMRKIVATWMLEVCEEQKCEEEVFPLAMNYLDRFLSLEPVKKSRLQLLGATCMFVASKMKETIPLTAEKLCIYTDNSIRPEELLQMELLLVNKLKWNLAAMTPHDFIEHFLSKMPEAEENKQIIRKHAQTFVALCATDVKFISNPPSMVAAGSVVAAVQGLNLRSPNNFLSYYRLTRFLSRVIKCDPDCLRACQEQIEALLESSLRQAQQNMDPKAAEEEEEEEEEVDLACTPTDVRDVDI
CDK5/CDK5R1, sequence (Q00535 whole entry): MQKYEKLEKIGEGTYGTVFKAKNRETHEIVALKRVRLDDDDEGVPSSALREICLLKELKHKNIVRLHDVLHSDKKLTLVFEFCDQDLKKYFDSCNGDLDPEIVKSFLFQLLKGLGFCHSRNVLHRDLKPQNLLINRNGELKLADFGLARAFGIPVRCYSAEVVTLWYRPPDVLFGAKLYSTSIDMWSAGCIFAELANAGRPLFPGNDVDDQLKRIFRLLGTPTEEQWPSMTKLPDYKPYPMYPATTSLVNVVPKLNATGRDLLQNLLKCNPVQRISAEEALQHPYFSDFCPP
CDK5/CDK5R1, sequence (Q15078 whole entry partner): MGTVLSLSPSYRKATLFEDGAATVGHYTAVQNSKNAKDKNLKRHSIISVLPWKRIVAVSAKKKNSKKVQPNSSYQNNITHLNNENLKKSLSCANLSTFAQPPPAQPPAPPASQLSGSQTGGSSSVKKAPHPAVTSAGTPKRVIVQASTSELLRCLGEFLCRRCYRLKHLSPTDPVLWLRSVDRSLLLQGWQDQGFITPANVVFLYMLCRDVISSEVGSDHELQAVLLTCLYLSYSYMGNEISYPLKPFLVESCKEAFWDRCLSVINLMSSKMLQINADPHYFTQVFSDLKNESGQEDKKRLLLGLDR
CDK9/Cyclin K, sequence (P50750 whole entry): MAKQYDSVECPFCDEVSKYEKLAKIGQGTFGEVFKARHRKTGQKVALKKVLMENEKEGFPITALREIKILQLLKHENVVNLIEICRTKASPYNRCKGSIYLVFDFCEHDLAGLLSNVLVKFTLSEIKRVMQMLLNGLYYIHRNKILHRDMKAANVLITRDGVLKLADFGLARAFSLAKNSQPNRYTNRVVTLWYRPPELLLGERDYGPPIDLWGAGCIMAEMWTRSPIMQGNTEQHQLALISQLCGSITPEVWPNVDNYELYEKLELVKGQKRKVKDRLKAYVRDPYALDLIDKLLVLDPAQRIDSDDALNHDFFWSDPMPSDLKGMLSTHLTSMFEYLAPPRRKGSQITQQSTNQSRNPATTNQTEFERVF
CDK9/Cyclin K, sequence (O75909 whole entry partner): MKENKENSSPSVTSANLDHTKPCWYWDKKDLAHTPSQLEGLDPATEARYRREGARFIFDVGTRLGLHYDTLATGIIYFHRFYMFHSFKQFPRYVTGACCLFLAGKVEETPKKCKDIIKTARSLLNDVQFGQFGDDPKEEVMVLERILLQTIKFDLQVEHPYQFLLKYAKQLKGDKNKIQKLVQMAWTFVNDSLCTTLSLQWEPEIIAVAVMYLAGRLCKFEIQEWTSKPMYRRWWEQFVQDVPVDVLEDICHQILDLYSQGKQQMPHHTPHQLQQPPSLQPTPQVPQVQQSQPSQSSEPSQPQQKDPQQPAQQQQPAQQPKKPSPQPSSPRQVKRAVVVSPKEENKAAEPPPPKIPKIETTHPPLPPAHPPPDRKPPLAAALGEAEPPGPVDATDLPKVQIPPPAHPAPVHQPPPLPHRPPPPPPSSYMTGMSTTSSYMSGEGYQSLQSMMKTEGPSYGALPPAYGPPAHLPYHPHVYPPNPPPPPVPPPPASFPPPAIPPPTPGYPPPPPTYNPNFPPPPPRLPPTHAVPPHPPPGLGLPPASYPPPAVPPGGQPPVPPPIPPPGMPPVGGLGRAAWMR
CDK10/Cyclin L2, sequence (Q15131 whole entry): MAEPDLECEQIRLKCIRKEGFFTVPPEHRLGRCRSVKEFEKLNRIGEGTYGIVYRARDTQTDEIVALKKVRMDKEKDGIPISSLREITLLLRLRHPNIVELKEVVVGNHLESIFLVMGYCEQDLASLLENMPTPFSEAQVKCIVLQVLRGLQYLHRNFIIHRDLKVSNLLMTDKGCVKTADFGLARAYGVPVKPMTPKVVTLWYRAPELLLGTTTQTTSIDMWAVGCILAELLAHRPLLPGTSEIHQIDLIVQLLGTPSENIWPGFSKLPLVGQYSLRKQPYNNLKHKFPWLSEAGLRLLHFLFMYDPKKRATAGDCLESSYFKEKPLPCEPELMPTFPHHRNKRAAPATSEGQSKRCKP
CDK4/Cyclin D1, sequence (P11802 whole entry): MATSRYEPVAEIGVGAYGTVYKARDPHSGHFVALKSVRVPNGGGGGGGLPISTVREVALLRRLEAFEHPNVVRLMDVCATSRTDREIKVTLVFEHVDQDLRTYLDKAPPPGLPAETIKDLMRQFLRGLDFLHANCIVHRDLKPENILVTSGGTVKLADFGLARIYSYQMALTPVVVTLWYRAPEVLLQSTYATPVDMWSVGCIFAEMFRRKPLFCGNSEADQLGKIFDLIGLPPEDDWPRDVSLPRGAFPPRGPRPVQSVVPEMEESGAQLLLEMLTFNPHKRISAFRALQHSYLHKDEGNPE
CDK4/Cyclin D1, sequence (P24385 whole entry partner): as the sequence (P24385 whole entry partner) above

## CC(C)c1cnn2c(NCc3ccccc3-n3cccn3)nc(OC3CCCNC3)nc12 (centres unmarked) [LDC4297]
CDK19/Cyclin C; average
  Inhibition at 10µM (%): 18.1%
CDK19/Cyclin C; experiment 1
  Inhibition at 10µM (%): 45.9%
CDK19/Cyclin C; experiment 2
  Inhibition at 10µM (%): -9.6%
CDK15/Cyclin Y; CDK15/Y, average
  Inhibition at 10µM (%): 95.3%
CDK15/Cyclin Y; CDK15/Y, average (± SEM where n=3), read-out: IC50
  IC50: 220 ± 20 nM
CDK15/Cyclin Y; CDK15/Y, experiment 1
  Inhibition at 10µM (%): 95.2%
CDK15/Cyclin Y; CDK15/Y, experiment 1, read-out: IC50
  IC50: 220 nM
CDK15/Cyclin Y; CDK15/Y, experiment 2
  Inhibition at 10µM (%): 95.3%
CDK15/Cyclin Y; CDK15/Y, experiment 2, read-out: IC50
  IC50: 260 nM
CDK15/Cyclin Y; CDK15/Y, experiment 3, read-out: IC50
  IC50: 193 nM
CDK15/Cyclin Y; live HEK-293, 2 h, mean ± S.E.M. (n=3) or mean (n=2), read-out: IC50 for CDK/cyclin complexes, CDK15/Y
  IC50: 220 ± 20 nM
CDK4/Cyclin D1; average
  Inhibition at 10µM (%): 58.1%
CDK4/Cyclin D1; average (± SEM where n=3)
  IC50: 80 ± 30 nM
CDK4/Cyclin D1; experiment 1
  Inhibition at 10µM (%): 52.3%
  IC50: 20 nM
CDK4/Cyclin D1; experiment 2
  Inhibition at 10µM (%): 64.0%
  IC50: 100 nM
CDK4/Cyclin D1; experiment 3
  IC50: 104 nM
CDK9/Cyclin K; average
  Inhibition at 10µM (%): 42.4%
CDK9/Cyclin K; experiment 1
  Inhibition at 10µM (%): 42.8%
CDK9/Cyclin K; experiment 2
  Inhibition at 10µM (%): 42.0%
CDK1/Cyclin E1; CDK1/E1, average
  Inhibition at 10µM (%): 72.7%
CDK1/Cyclin E1; CDK1/E1, average (± SEM where n=3), read-out: IC50
  IC50: 70 ± 20 nM
CDK1/Cyclin E1; CDK1/E1, experiment 1
  Inhibition at 10µM (%): 70.9%
CDK1/Cyclin E1; CDK1/E1, experiment 1, read-out: IC50
  IC50: 70 nM
CDK1/Cyclin E1; CDK1/E1, experiment 2
  Inhibition at 10µM (%): 74.5%
CDK1/Cyclin E1; CDK1/E1, experiment 2, read-out: IC50
  IC50: 110 nM
CDK1/Cyclin E1; CDK1/E1, experiment 3, read-out: IC50
  IC50: 43 nM
CDK1/Cyclin E1; live HEK-293, 2 h, mean ± S.E.M. (n=3) or mean (n=2), read-out: IC50 for CDK/cyclin complexes, CDK1/E1
  IC50: 70 ± 20 nM
CDK11A/Cyclin L2; average
  Inhibition at 10µM (%): 56.5%
CDK11A/Cyclin L2; experiment 1
  Inhibition at 10µM (%): 51.7%
CDK11A/Cyclin L2; experiment 2
  Inhibition at 10µM (%): 61.3%
CDK5/CDK5R1; CDK5/CDK5R1, average
  Inhibition at 10µM (%): 89.8%
CDK5/CDK5R1; CDK5/CDK5R1, average (± SEM where n=3), read-out: IC50
  IC50: 280 ± 50 nM
CDK5/CDK5R1; CDK5/CDK5R1, experiment 1
  Inhibition at 10µM (%): 86.3%
CDK5/CDK5R1; CDK5/CDK5R1, experiment 1, read-out: IC50
  IC50: 204 nM
CDK5/CDK5R1; CDK5/CDK5R1, experiment 2
  Inhibition at 10µM (%): 93.4%
CDK5/CDK5R1; CDK5/CDK5R1, experiment 2, read-out: IC50
  IC50: 280 nM
CDK5/CDK5R1; CDK5/CDK5R1, experiment 3, read-out: IC50
  IC50: 360 nM
CDK5/CDK5R1; live HEK-293, 2 h, mean ± S.E.M. (n=3) or mean (n=2), read-out: IC50 for CDK/cyclin complexes, CDK5/R1
  IC50: 280 ± 50 nM
CDK14/Cyclin Y; average
  Inhibition at 10µM (%): 89.0%
CDK14/Cyclin Y; experiment 1
  Inhibition at 10µM (%): 88.6%
CDK14/Cyclin Y; experiment 2
  Inhibition at 10µM (%): 89.3%
CDK12/Cyclin K; average
  Inhibition at 10µM (%): 18.0%
CDK12/Cyclin K; experiment 1
  Inhibition at 10µM (%): 25.5%
CDK12/Cyclin K; experiment 2
  Inhibition at 10µM (%): 10.4%
CDK20/Cyclin H; experiment 1
  Inhibition at 10µM (%): 53.8%
CDK20/Cyclin H; experiment 2
  Inhibition at 10µM (%): 57.6%
CDK10/Cyclin L2; average
  Inhibition at 10µM (%): 29.7%
CDK10/Cyclin L2; experiment 1
  Inhibition at 10µM (%): 25.4%
CDK10/Cyclin L2; experiment 2
  Inhibition at 10µM (%): 34.0%
CDK13/Cyclin K; average
  Inhibition at 10µM (%): 24.9%
CDK13/Cyclin K; experiment 1
  Inhibition at 10µM (%): 20.0%
CDK13/Cyclin K; experiment 2
  Inhibition at 10µM (%): 29.8%
CDK11B/Cyclin L2; average
  Inhibition at 10µM (%): 53.6%
CDK11B/Cyclin L2; average (± SEM where n=3)
  IC50: 760 ± 60 nM
CDK11B/Cyclin L2; experiment 1
  Inhibition at 10µM (%): 54.6%
  IC50: 876 nM
CDK11B/Cyclin L2; experiment 2
  Inhibition at 10µM (%): 52.6%
  IC50: 685 nM
CDK11B/Cyclin L2; experiment 3
  IC50: 732 nM
CDK6/Cyclin D1; average
  Inhibition at 10µM (%): 27.5%
CDK6/Cyclin D1; average (± SEM where n=3)
  IC50: 110 ± 80 nM
CDK6/Cyclin D1; experiment 1
  Inhibition at 10µM (%): 31.4%
  IC50: 9 nM
CDK6/Cyclin D1; experiment 2
  Inhibition at 10µM (%): 23.6%
  IC50: 270 nM
CDK6/Cyclin D1; experiment 3
  IC50: 50 nM
CDK18/Cyclin Y; average
  Inhibition at 10µM (%): 97.4%
CDK18/Cyclin Y; average (± SEM where n=3)
  IC50: 230 ± 30 nM
CDK18/Cyclin Y; experiment 1
  Inhibition at 10µM (%): 93.4%
  IC50: 177 nM
CDK18/Cyclin Y; experiment 2
  Inhibition at 10µM (%): 101.4%
  IC50: 260 nM
CDK18/Cyclin Y; experiment 3
  IC50: 262 nM
CDK8/Cyclin C; average
  Inhibition at 10µM (%): 3.8%
CDK8/Cyclin C; experiment 1
  Inhibition at 10µM (%): 14.8%
CDK8/Cyclin C; experiment 2
  Inhibition at 10µM (%): -7.1%
CDK16/Cyclin Y; average (± SEM where n=3)
  IC50: 400 ± 30 nM
CDK16/Cyclin Y; experiment 1
  Inhibition at 10µM (%): 87.3%
  IC50: 332 nM
CDK16/Cyclin Y; experiment 2
  Inhibition at 10µM (%): 88.6%
  IC50: 430 nM
CDK16/Cyclin Y; experiment 3
  IC50: 428 nM
CDK17/Cyclin Y; average
  Inhibition at 10µM (%): 90.8%
CDK17/Cyclin Y; average (± SEM where n=3)
  IC50: 200 ± 20 nM
CDK17/Cyclin Y; experiment 1
  Inhibition at 10µM (%): 89.8%
  IC50: 194 nM
CDK17/Cyclin Y; experiment 2
  Inhibition at 10µM (%): 91.8%
  IC50: 170 nM
CDK17/Cyclin Y; experiment 3
  IC50: 242 nM
CDK7; average
  Inhibition at 10µM (%): 93.9%
CDK7; average (± SEM where n=3)
  IC50: 22 ± 6 nM
CDK7; experiment 1
  Inhibition at 10µM (%): 93.7%
  IC50: 17 nM
CDK7; experiment 2
  Inhibition at 10µM (%): 94.2%
  IC50: 15 nM
CDK7; experiment 3
  IC50: 33 nM

Source: paper PMC7265341, “Quantifying CDK inhibitor selectivity in live cells” (Nature Communications, 2020)
